Literature values, collected in PMC2716802 (Structure (London, England : 1993), 2008).
No end group written: not given here.

Molecular target: BoNT/A LC (Clostridium botulinum, UniProt P0DPI0)
Sequence (P0DPI0 2-448 limits assumed): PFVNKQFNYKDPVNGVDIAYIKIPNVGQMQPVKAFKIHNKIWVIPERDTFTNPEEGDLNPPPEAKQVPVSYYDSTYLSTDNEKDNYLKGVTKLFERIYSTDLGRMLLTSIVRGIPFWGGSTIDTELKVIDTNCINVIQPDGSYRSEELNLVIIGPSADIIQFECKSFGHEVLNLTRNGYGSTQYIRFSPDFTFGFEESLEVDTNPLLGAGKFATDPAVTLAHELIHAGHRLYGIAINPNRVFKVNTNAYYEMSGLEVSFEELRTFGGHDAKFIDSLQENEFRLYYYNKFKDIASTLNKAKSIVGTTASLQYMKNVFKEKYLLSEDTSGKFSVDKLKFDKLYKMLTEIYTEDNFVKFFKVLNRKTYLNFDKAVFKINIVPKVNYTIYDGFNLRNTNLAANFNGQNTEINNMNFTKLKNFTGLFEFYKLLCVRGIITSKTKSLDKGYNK

## Ac-CRATKML
  Ki: 1.9 µM
